Measurements published in PMC5840523, “Assessment of a pretomanid analogue library for African trypanosomiasis: Hit-to-lead studies on 6-substituted 2-nitro-6,7-dihydro-5H-imidazo[2,1-b][1,3]thiazine 8-oxides” (Bioorganic & Medicinal Chemistry Letters, 2018).
Where two headings read alike, the source gives them in different places.

Experiments:
T. b. brucei 427 = assay: T. b. brucei growth inhibition (University of Antwerp); format: cell-based, Trypanosoma brucei brucei; conditions: for IC50: T. b. brucei 427, mean of 2 to 5 determinations, read-out: IC50 T. b. bruc
T. b. rhodesiense = T. b. rhodesiense growth inhibition (University of Antwerp); format: cell-based, Trypanosoma brucei rhodesiense; conditions: mean of 2 to 5 determinations, read-out: IC50 T. b. rhod
Trypanosoma cruzi = assay: T. cruzi growth inhibition (University of Antwerp); format: cell-based; conditions: mean of 2 to 5 determinations
Leishmania infantum = assay: L. infantum growth inhibition (University of Antwerp); format: cell-based; conditions: mean of 2 to 5 determinations
[1] = system: human lung fibroblasts (MRC-5 cells); assay: Cytotoxicity toward MRC-5 cells (University of Antwerp); format: cell-based
T. b. brucei (EATRO 110) = assay: Acute (stage 1) HAT infection mouse model; format: in vivo, T. b. brucei; female Swiss Webster mice; conditions: 2 mg/kg i.p. once daily for 4 days
Protocol: Therefore, 24 was examined in a stage 1 HAT mouse model.[14] Briefly, dosing was orally once daily for four days, starting 24 h postinfection, and parasitemia was assessed weekly via tail vein blood smears (see the Supporting Information). Excellent activity was observed (Table 4), with 24 providing complete cures (i.e. parasite free blood smears after >30 days) to all mice at doses as low as 5 mg/kg, similar to the control drug pentamidine (given i.p. at 2 mg/kg), whereas the vehicle only mice died on day 7. […] Here, oral dosing of 24 (at 12.5 to 50 mg/kg once daily for seven days from day 21 postinfection) led to significant increases in survival times in comparison to untreated controls (66–70 days vs 31 days; Table 5), although cure rates were inadequate (0–20%). […]
Mouse Model f or Acu te HAT Inf ection. Compound 24 was tested for in vivo effi cac y against acute HAT infection caused b y T. b. brucei (EATRO 110 strain) at the Haskins Laboratories, Pace Universit y. […] Infected animals or th ose showing si gns of infectionwer e euthanized.Untreated infected contr ol animals died after 5-7 days; mice remaining parasite free for more than 30 da ys beyond the end of the tr eatment period w er e con sidered cur ed. […]

[2] = cytotoxicity toward human lung fibroblasts
[3] = Trypanosoma brucei, RHODESIENSE
[4] = Homo sapiens, MRC5, cytotoxicity toward human lung fibroblasts

Row | SMILES | IC50 (Trypanosoma cruzi) | IC50 (Trypanosoma cruzi; Trypanosoma cruzi) | IC50 (T. b. brucei 427) | IC50 (T. b. rhodesiense) | IC50 (Leishmania infantum) | IC50 [1, 2] | potency relative to 12 against T. b. brucei (fold less potent) (T. b. brucei 427) | IC50 (T. b. brucei 427; Trypanosoma brucei) | IC50 (T. b. rhodesiense; [3]) | IC50 (Leishmania infantum; Leishmania infantum) | IC50 [1, 4] | Cured (T. b. brucei (EATRO 110)) | Cured/Total (T. b. brucei (EATRO 110)) | Mean survival (T. b. brucei (EATRO 110))
1 | O=[N+]([O-])c1cn2c(n1)[S+]([O-])CC(Oc1ccc(OC(F)(F)F)cc1)C2 (stereo not shown) [Compound 36] | 7.7 µM | – | 55 µM | 27 µM | > 64 µM | > 64 µM | – | – | – | – | – | – | – | –
2 | O=[N+]([O-])c1cn2c(n1)[S+]([O-])CC(Oc1ccc(OC(F)(F)F)cc1)C2 (stereo not shown) [Compound 33] | 2.1 µM | – | 1.6 µM | 0.98 µM | 7 µM | 23 µM | 4- to 6 fold | – | – | – | – | – | – | –
3 | O=[N+]([O-])c1cn2c(n1)S(=O)(=O)CC(Oc1ccc(C(F)(F)F)cn1)C2 (stereo not shown) [Compound 41] | – | 2.6 µM | – | – | – | – | – | 19 µM | 11 µM | 30 µM | 46 µM | – | – | –
4 | O=[N+]([O-])c1cn2c(n1)[S+]([O-])CC(OCc1ccc(-c3ccc(OC(F)(F)F)cc3)cn1)C2 (stereo not shown) [Compound 39, 2-Nitro-6-({5-[4-(trifluoromethoxy)phenyl]pyridin-2-yl}methoxy)-6,7-dihydro-5H-imidazo[2,1-b][1,3]thiazine 8-oxide] | 0.14 µM | – | 0.075 µM | 0.1 µM | 2 µM | 54 µM | – | – | – | – | – | – | – | –
5 | N=C(N)c1ccc(OCCCCCOc2ccc(C(=N)N)cc2)cc1 [Pentamidine, pentamidine, reference compound] | – | – | – | – | – | – | – | – | – | – | – | 100% | 3/3 | >30 days
6 | O=[N+]([O-])c1cn2c(n1)[S+]([O-])CC(Oc1ccc(C(F)(F)F)cn1)C2 (stereo not shown) [Compound 37] | 12 µM | – | 17 µM | 9.9 µM | 41 µM | 30 µM | – | – | – | – | – | – | – | –
7 | O=[N+]([O-])c1cn2c(n1)S(=O)(=O)CC(Oc1ccc(OC(F)(F)F)cc1)C2 (stereo not shown) [Compound 40] | – | 3.5 µM | – | – | – | – | – | 15 µM | 13 µM | 32 µM | > 64 µM | – | – | –
8 | O=[N+]([O-])c1cn2c(n1)[S+]([O-])CC(Oc1ccc(C(F)(F)F)cn1)C2 (stereo not shown) [Compound 34] | 4.1 µM | – | 1.2 µM | 0.51 µM | 13 µM | > 64 µM | 4- to 6 fold | – | – | – | – | – | – | –
9 | O=[N+]([O-])c1cn2c(n1)SCC(Oc1ccc(C(F)(F)F)cn1)C2 (stereo not shown) [Compound 29] | – | 5.3 µM | – | – | – | – | – | > 64 µM | > 64 µM | 10 µM | > 64 µM | – | – | –

Further lines, with some results ahead:

Row | IC50 (Trypanosoma cruzi) | IC50 (Trypanosoma cruzi; Trypanosoma cruzi) | SMILES | IC50 (T. b. brucei 427) | IC50 (T. b. rhodesiense) | IC50 (Leishmania infantum) | IC50 [1, 2] | potency relative to 12 against T. b. brucei (fold less potent) (T. b. brucei 427) | IC50 (T. b. brucei 427; Trypanosoma brucei) | IC50 (T. b. rhodesiense; [3]) | IC50 (Leishmania infantum; Leishmania infantum) | IC50 [1, 4] | Cured (T. b. brucei (EATRO 110)) | Cured/Total (T. b. brucei (EATRO 110)) | Mean survival (T. b. brucei (EATRO 110))
10 | 9.1 µM | – | O=[N+]([O-])c1cn2c(n1)[S+]([O-])CC(OCc1ccc(OC(F)(F)F)cc1)C2 (stereo not shown) [Compound 38] | 5.6 µM | 5.1 µM | > 64 µM | > 64 µM | – | – | – | – | – | – | – | –
11 | – | 1.4 µM | O=[N+]([O-])c1cn2c(n1)SCC(OCc1ccc(-c3ccc(OC(F)(F)F)cc3)cn1)C2 (stereo not shown) [Compound 32] | – | – | – | – | – | 4.3 µM | 2.1 µM | 7.5 µM | 21 µM | – | – | –
12 | – | 1.1 µM | O=[N+]([O-])c1cn2c(n1)SCC(OCc1ccc(OC(F)(F)F)cc1)C2 (stereo not shown) [Compound 30] | – | – | – | – | – | 44 µM | 36 µM | 55 µM | > 64 µM | – | – | –
13 | – | 0.49 µM | O=[N+]([O-])c1cn2c(n1)SCC(OCc1ccc(OCc3ccccc3)cc1)C2 (stereo not shown) [Compound 31] | – | – | – | – | – | 1.4 µM | 1.2 µM | 45 µM | > 64 µM | – | – | –
14 | – | 2.2 µM | O=[N+]([O-])c1cn2c(n1)SCC(Oc1ccc(OC(F)(F)F)cc1)C2 (stereo not shown) [Compound 28] | – | – | – | – | – | 40 µM | 59 µM | 7 µM | 51 µM | – | – | –
